Measured values from patent US20070208031A1, “Substituted Diketopiperazines as Oxytocin Antagonists” (priority 2004, published 2007).

Legend:
[1] = In vitro intrinsic clearance in microsomes (Assay 3), human; format: in vitro ADME; conditions: pH 7.4; heading: Assay 3 - Microsomal Cl; human female microsomes, 0.5 uM compound, 0.5 mg/mL protein
Experimental: (§1) Determination of In Vitro Intrinsic Clearance in Microsomes
(§2) NADP regeneration buffer for use in incubations was prepared fresh on the assay day. It contained 7.8 mg glucose-6-phosphate (mono-sodium salt), 1.7 mg NADP and 6 Units glucose-6-phosphate dehydrogenase per 1 mL of 2% sodium bicarbonate. Microsomes (human, female; cynomolgus monkey, female; dog, female; rat, female) were prepared in pH 7.4 phosphate buffer and contained 0.625 mg protein/mL. Unless stated, all subsequent steps were performed by a Tecan Genesis 150/8 RSP. A 1.25 mM stock solution of the compounds was prepared in Acetonitrile/water (1:1). 25 ul of the 1.25 mM stock solution was added to 600 ul of Acetonitrile/water (1:1) to give a 50 uM solution. For each species, the 50 uM solutions (10 uL) were added to microsomes (790 uL) in a microplate (Porvair, 96 deepwell, square).
(§3) 400 uL of the microsomal solution containing the compound was transferred to a microplate (Porvair, 96 deepwell, round) and was pre-warmed at 37° C. for five minutes prior to initiation of incubations. All incubations were initiated by addition of 100 uL of NADP regeneration system to the pre-warmed microsomes. The mixtures were incubated at 37° C. in a Techne heating block. Following 0, 3, 6, 12 and 30 minutes incubation, 20 uL aliquots were taken and added to 100 uL of acetonitrile containing internal standard.
(§4) For determination of the rate of metabolism, incubations were performed at a compound concentration of 0.5 uM and a protein concentration of 0.5 mg/mL. The concentration of solvent in the incubation was 0.5%.
(§5) Test compound concentrations were determined by LC/MS/MS; results were reported as analyte:internal standard peak area ratios.
(§6) The rate of disappearance was calculated by fitting a single exponential decay to the concentration-time curve using Excel and intrinsic clearance was calculated using the following formula: [formula] Results

[2] = In vitro intrinsic clearance in microsomes (Assay 3), dog; format: in vitro ADME; conditions: pH 7.4; heading: Assay 3 - Microsomal Cl; dog female microsomes, 0.5 uM compound, 0.5 mg/mL protein
Experimental: as §1, §2, §3, §4, §5, §6

[3] = In vitro intrinsic clearance in microsomes (Assay 3), cynomolgus monkey; format: in vitro ADME; conditions: pH 7.4; heading: Assay 3 - Microsomal Cl, Cyno; cynomolgus monkey female microsomes, 0.5 uM compound, 0.5 mg/mL protein
Experimental: as §1, §2, §3, §4, §5, §6

[4] = In vitro intrinsic clearance in microsomes (Assay 3), rat; format: in vitro ADME; conditions: pH 7.4; heading: Assay 3 - Microsomal Cl; rat female microsomes, 0.5 uM compound, 0.5 mg/mL protein
Experimental: as §1, §2, §3, §4, §5, §6

[5] = target: T1, recombinant human Oxytocin-1 (hOT) receptor (Homo sapiens, UniProt P30559); test: Determination of antagonist affinity at human Oxytocin-1 receptors using FLIPR (Assay 1); format: cell-based; conditions: CHO-hOT cells, FLIPR calcium response, oxytocin at EC80; read-out: fpki (Assay 1)
T1 construct: expressed in transfected cells
T1 sequence (P30559 1-389): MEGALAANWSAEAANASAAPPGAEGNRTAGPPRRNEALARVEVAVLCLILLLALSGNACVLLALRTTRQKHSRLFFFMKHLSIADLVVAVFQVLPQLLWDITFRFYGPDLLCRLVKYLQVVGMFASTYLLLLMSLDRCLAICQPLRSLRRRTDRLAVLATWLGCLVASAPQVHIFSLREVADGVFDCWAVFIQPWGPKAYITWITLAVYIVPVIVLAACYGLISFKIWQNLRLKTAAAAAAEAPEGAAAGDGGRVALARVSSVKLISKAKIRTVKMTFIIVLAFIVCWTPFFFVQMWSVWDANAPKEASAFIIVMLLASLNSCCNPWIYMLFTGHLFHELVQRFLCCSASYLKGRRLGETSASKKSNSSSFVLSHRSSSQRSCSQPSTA
Experimental: Determination of Antagonist Affinity at Human Oxytocin-1 Receptors using FLIPR
Adherent Chinese Hamster Ovary (CHO) cells, stably expressing the recombinant human Oxytocin-1 (hOT) receptor, were maintained in culture in DMEM:F12 medium (Sigma, cat no D6421), supplemented with 10% heat inactivated foetal calf serum (Gibco/lnvitrogen, cat. no.01000-147), 2 mM L-glutamine (Gibco/lnvitrogen, cat. no. 25030-024) and 0.2 mg/ml G418 (Gibco/lnvitrogen, cat no. 10131-027). Cells were grown as monolayers under 95%:5% air:CO2 at 37° C. and passaged every 3-4 days using TrypLE™ Express (Gibco/lnvitrogen, cat no. 12604-013).
Measurement of [Ca^2+]1 using the FLIPR™
CHO-hOT cells were seeded into black walled clear-base 384-well plates (Nunc) at a density of 10,000 cells per well in culture medium as described above and maintained overnight (95%:5% air:CO2 at 37° C.). After removal of culture medium, cells were incubated for 1 h at 37° C. in Tyrode's medium (NaCl, 145 mM; KCl, 2.5 mM; HEPES, 10 mM; Glucose, 10 mM; MgCl2, 1.2 mM; CaCl2, 1.5 mM) containing probenacid (0.7 mg/ml), the cytoplasmic calcium indicator, Fluo-4 (4 uM; Teflabs, USA) and the quenching agent Brilliant Black (250 uM; Molecular Devices, UK). Cells were then incubated for an additional 30min at 37° C. with either buffer alone or buffer containing OT antagonist, before being placed into a FLIPR™ (Molecular Devices, UK) to monitor cell fluorescence (λex=488 nm, λEM=540 nm) before and after the addition of a submaximal concentration of oxytocin (EC80).
Functional responses using FLIPR were analysed using Activity Base Version 5.0.10.

[6] = target: T2, human recombinant oxytocin receptors (Homo sapiens, UniProt P30559); test: Oxytocin binding assay, [3H]-oxytocin competition on CHO membranes (Assay 2); conditions: ~2.4 nM [3H]-oxytocin, Cheng-Prusoff, read-out: pKi (Assay 2) (converted)
T2 construct: expressed in transfected cells; host or cells: CHO cells (membrane preparation)
T2 sequence (P30559 1-389): T1 sequence (P30559 1-389)
Experimental: Membranes were prepared from CHO cells expressing human recombinant oxytocin receptors. The membrane preparation was frozen in aliquots at −70° C. until used.
Membranes (˜50 ug) were incubated in 200 ul of assay buffer (50 mM Tris, 10 mM MgCl2, and 0.1% bovine serum albumin, pH 7.5) containing ˜2.4 nM of [3H]-oxytocin in the absence (total binding) or presence (non-specific binding) of 1 uM unlabeled oxytocin and increasing concentrations of the compounds in Examples 1 and 2 or comparator compounds. Incubations were performed at room temperature for 60 minutes. The reactions were stopped with 3 ml of ice cold buffer and filtered through Whatman GF/C filter paper presoaked in 0.3% polyethylenimine. The filters were washed 4 times with 3 ml buffer using a Brandel cell harvester. The filters were counted in 3 ml Ready Safe scintillation fluid (Beckman).
Specific binding represented approximately 90% of total binding.
IC50 values were determined from competition binding experiments using non-linear regression analysis (GraphPad) and converted to Ki using the method of Cheng and Prusoff, 1974. Data are reported as mean values.

| SMILES | microsomal CLint at 0.5 uM [1] [mL/min/g] | microsomal CLint at 0.5 uM [2] [mL/min/g] | microsomal CLint at 0.5 uM [3] [mL/min/g] | microsomal CLint at 0.5 uM [4] [mL/min/g] | Ki [5] [nM] | Ki [6] [nM] |
| --- | --- | --- | --- | --- | --- | --- |
| CC(C)C[C@@H]1C(=O)N[C@H](C2Cc3ccccc3C2)C(=O)N1[C@@H](C(=O)N(C)C)c1ccc2[nH]ncc2c1 [Comparator compound X, (2R)-2-[(3R,6R)-3-(2,3-dihydro-1H-inden-2-yl)-6-isobutyl-2,5-dioxopiperazin-1-yl]-2-(1H-indazol-5-yl)-N,N-dimethylethanamide, reference compound] | > 31 | 16 to 20 | > 31 | 9 to 15 | – | – |
| CC(C)C[C@@H]1C(=O)N[C@H](C2Cc3ccccc3C2)C(=O)N1[C@@H](C(=O)N(C)C)c1ccc(F)cc1F [Comparator compound Y, (2R)-2-(2,4-difluorophenyl)-2-[(3R,6R)-3-(2,3-dihydro-1H-inden-2-yl)-6-isobutyl-2,5-dioxopiperazin-1-yl]-N,N-dimethylethanamide, reference compound] | 16 to 20 | 1 to 8 | 21 to 30 | 1 to 8 | 2 to 3.16 | 0.0398 to 0.126 |
| CC[C@H](C)[C@@H]1C(=O)N[C@H](C2Cc3ccccc3C2)C(=O)N1[C@@H](C(=O)NC)c1ccc2c(cnn2C)c1 [Example 1, (2R)-2-{(3R,6R)-3-(2,3-Dihydro-1H-inden-2-yl)-6-[(1S)-1-methylpropyl]-2,5-dioxo-1-piperazinyl}-N-methyl-2-(1-methyl-1H-indazol-5-yl)ethanamide] | 1 to 8 | 1 to 8 | 9 to 15 | 1 to 8 | 2 to 3.16 | 0.0398 to 0.126 |
| CC[C@H](C)[C@@H]1C(=O)N[C@H](C2Cc3ccccc3C2)C(=O)N1[C@@H](C(=O)N(C)C)c1ccc2c(cnn2C)c1 [Example 2, (2R)-2-{(3R,6R)-3-(2,3-Dihydro-1H-inden-2-yl)-6-[(1S)-1-methylpropyl]-2,5-dioxo-1-piperazinyl}-N,N-dimethyl-2-(1-methyl-1H-indazol-5-yl)ethanamide] | 1 to 8 | 1 to 8 | 9 to 15 | 1 to 8 | 2 to 3.16 | 0.0398 to 0.126 |
